One may read the Ki as the equilibrium dissociation constant of an inhibitor or competing ligand from its target.

In BindingDB's records for doi:10.1021/jm00150a013 (1986) one finds Ki data, which are given here for one compound.

Molecules are shown by their SMILES.

In this assay the target is Chymotrypsinogen A (Bos taurus) (UniProt P00766). Briefly: Inhibitory activity against bovine Chymotrypsinogen expressed as inhibitory constant.

With `CCCCc1c(C)oc(=O)c(CCCC)c1O`, the inhibition constant Ki was determined as 1350 µM. This counts as millimolar.
